# Legend:
# Test in all cases: Kinase panel (Carna)
# Type in all cases: biochemical
# ABL = molecular target: T1, ABL (Homo sapiens, UniProt P00519)
# T1 construct: purchased Carna Biosciences
# Source text: (§1) Detailed information on the assay conditions is available on the website of Carna Biosciences (http://www.carnabio.com).
# DDR1 = molecular target: T2, DDR1 (Homo sapiens, UniProt Q08345)
# T2 construct: purchased Carna Biosciences
# EPHA8 = molecular target: T3, EPHA8 (Homo sapiens, UniProt P29322)
# T3 construct: purchased Carna Biosciences
# Source text: as §1
# EPHB4 = molecular target: T4, EPHB4 (Homo sapiens, UniProt P54760)
# T4 construct: purchased Carna Biosciences
# Source text: as §1
# FAK = molecular target: T5, FAK (Homo sapiens, UniProt Q05397)
# T5 construct: purchased Carna Biosciences
# Source text: as §1
# FMS = molecular target: T6, FMS (Homo sapiens, UniProt P07333)
# T6 construct: purchased Carna Biosciences
# T6 sequence (P07333 20-972): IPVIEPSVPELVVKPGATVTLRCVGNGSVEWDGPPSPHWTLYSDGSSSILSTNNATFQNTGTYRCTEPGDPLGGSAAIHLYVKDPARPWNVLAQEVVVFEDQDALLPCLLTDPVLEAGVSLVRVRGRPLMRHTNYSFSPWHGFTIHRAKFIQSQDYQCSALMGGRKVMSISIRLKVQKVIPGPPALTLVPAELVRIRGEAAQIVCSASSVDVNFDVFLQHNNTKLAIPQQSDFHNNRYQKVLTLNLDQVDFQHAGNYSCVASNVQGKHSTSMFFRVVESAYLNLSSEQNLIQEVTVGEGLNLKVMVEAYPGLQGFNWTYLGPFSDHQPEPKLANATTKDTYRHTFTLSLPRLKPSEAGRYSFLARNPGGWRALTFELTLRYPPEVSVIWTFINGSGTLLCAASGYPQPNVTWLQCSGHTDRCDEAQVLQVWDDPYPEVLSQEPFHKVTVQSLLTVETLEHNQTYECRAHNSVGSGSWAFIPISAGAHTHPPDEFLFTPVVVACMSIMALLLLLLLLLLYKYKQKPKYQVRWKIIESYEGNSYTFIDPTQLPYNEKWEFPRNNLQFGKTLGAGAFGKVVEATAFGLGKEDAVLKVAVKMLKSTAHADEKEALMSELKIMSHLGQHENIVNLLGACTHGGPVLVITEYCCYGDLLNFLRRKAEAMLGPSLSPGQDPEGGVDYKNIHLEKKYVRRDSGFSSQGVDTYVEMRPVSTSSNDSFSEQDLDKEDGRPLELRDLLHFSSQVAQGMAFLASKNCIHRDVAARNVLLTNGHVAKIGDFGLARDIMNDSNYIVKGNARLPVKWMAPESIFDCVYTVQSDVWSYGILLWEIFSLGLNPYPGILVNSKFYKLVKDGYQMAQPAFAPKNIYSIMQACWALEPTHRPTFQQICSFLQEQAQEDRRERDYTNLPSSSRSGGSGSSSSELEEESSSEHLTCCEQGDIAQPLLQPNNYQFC
# Source text: as §1
# JAK2 = molecular target: T7, JAK2 (Homo sapiens, UniProt O60674)
# T7 construct: purchased Carna Biosciences
# Source text: as §1
# KIT = molecular target: T8, KIT (Homo sapiens, UniProt P10721)
# T8 construct: purchased Carna Biosciences
# Source text: as §1
# ROS = molecular target: T9, ROS (Homo sapiens, UniProt P08922)
# T9 construct: purchased Carna Biosciences
# Source text: as §1
# SRM = molecular target: T10, SRM (Homo sapiens, UniProt Q9H3Y6)
# T10 construct: purchased Carna Biosciences
# Source text: as §1
# TRKA = molecular target: T11, TRKA (Homo sapiens, UniProt P04629)
# T11 construct: purchased Carna Biosciences
# Source text: as §1
# TRKC = molecular target: T12, TRKC (Homo sapiens, UniProt Q16288)
# T12 construct: purchased Carna Biosciences
# Source text: as §1
# AurA = molecular target: T13, AurA (Homo sapiens, UniProt O14965)
# T13 construct: purchased Carna Biosciences
# Source text: as §1
# AurB = molecular target: T14, AurB (Homo sapiens, UniProt Q96GD4)
# T14 construct: purchased Carna Biosciences
# T14 sequence (Q96GD4 whole entry): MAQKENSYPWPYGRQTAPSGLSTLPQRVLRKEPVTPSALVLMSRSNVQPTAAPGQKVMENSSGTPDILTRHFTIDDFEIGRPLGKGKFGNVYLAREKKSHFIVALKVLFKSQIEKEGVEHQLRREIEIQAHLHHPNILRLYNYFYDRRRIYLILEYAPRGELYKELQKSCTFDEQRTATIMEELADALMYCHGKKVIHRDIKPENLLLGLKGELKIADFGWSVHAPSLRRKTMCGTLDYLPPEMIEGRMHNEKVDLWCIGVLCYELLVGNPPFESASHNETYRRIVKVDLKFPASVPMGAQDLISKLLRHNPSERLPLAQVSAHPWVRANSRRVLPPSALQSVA
# T14 sequence (Q9NQS7 803-918 partner limits assumed): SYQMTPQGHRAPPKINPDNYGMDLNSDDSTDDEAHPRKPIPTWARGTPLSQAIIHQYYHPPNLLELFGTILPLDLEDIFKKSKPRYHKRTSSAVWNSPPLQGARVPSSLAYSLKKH
# Source text: as §1
# CaMK1δ = molecular target: T15, CaMK1δ (Homo sapiens, UniProt Q8IU85)
# T15 construct: purchased Carna Biosciences
# T15 sequence (Q8IU85 whole entry): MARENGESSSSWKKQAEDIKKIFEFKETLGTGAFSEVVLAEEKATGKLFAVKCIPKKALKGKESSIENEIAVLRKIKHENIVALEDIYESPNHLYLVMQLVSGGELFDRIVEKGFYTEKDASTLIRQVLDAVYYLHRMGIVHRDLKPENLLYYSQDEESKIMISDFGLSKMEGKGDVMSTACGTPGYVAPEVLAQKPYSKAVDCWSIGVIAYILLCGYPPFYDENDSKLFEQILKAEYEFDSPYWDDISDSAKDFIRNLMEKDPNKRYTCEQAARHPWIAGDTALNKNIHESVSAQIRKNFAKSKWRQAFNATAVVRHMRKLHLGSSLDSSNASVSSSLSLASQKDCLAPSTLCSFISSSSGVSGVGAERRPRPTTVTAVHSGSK
# Source text: as §1
# CaMK2α = molecular target: T16, CaMK2α (Homo sapiens, UniProt Q9UQM7)
# T16 construct: purchased Carna Biosciences
# Source text: as §1
# CDK3/CycE1 = molecular target: T17, CDK3/CycE1 (Homo sapiens, UniProt Q00526)
# T17 construct: purchased Carna Biosciences
# Source text: as §1
# CDK4/CycD3 = molecular target: T18, CDK4/CycD3 (Homo sapiens, UniProt P11802)
# T18 construct: purchased Carna Biosciences
# Source text: as §1
# CK2α2/β = molecular target: T19, CK2α2/β (Homo sapiens, UniProt P19784)
# T19 construct: purchased Carna Biosciences
# COT_Cascade = molecular target: T20, COT_Cascade (Homo sapiens, UniProt P41279)
# T20 construct: purchased Carna Biosciences
# Erk1 = molecular target: T21, Erk1 (Homo sapiens, UniProt P27361)
# T21 construct: purchased Carna Biosciences
# Source text: as §1
# Erk5 = molecular target: T22, Erk5 (Homo sapiens, UniProt Q13164)
# T22 construct: purchased Carna Biosciences
# HIPK4 = molecular target: T23, HIPK4 (Homo sapiens, UniProt Q8NE63)
# T23 construct: purchased Carna Biosciences
# Source text: as §1
# IKKα = molecular target: T24, IKKα (Homo sapiens, UniProt O15111)
# T24 construct: purchased Carna Biosciences
# T24 sequence (O15111 whole entry): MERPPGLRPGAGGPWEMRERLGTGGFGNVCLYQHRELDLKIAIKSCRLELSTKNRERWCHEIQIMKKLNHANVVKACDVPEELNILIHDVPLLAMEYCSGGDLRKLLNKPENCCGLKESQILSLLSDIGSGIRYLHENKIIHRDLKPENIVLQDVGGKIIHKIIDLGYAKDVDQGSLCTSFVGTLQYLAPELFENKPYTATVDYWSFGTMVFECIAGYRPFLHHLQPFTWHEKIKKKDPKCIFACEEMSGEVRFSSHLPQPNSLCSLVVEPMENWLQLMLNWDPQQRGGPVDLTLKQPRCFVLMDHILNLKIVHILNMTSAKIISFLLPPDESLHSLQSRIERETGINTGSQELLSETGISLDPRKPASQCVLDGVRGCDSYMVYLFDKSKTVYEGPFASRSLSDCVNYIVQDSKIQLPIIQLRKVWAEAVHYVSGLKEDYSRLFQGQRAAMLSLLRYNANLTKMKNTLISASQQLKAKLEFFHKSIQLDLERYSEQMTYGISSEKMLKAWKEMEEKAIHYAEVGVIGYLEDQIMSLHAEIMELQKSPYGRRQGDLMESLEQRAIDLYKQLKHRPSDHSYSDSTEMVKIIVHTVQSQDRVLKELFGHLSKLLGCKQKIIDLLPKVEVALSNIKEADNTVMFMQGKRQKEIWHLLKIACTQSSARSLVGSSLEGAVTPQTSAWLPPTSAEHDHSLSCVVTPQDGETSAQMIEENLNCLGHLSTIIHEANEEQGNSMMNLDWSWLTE
# Source text: as §1
# LATS2 = molecular target: T25, LATS2 (Homo sapiens, UniProt Q9NRM7)
# T25 construct: purchased Carna Biosciences
# T25 sequence (Q9NRM7 whole entry): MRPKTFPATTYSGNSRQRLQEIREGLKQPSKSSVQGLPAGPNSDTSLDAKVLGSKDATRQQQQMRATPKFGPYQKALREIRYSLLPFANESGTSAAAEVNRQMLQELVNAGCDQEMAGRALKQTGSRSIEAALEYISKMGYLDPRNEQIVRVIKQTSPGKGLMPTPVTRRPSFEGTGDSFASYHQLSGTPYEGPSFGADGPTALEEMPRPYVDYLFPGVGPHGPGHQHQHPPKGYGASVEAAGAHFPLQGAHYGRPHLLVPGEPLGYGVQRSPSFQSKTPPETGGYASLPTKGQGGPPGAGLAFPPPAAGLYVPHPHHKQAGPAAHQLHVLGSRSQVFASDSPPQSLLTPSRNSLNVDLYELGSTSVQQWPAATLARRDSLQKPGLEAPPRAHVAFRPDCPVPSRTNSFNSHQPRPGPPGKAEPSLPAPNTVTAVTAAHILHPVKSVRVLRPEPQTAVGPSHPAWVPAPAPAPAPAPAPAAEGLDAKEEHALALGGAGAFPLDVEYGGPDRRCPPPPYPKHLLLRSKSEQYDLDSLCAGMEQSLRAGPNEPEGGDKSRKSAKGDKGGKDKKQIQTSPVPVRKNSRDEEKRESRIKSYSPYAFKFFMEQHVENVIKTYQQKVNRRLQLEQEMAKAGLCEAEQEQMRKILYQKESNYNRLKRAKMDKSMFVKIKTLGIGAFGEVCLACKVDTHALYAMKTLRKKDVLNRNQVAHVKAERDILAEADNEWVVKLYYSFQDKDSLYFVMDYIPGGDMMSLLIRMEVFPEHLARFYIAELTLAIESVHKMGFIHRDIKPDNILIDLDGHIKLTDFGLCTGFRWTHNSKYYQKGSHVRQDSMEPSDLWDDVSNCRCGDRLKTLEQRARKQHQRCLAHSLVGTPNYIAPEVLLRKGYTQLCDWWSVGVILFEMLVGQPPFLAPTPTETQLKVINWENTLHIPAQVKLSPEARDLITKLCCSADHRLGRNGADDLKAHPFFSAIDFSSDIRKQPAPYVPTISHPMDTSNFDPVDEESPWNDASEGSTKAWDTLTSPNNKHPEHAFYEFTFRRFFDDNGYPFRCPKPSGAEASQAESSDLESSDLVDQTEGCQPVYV
# NuaK2 = molecular target: T26, NuaK2 (Homo sapiens, UniProt Q9H093)
# T26 construct: purchased Carna Biosciences
# MAPKAPK2 = molecular target: T27, MAPKAPK2 (Homo sapiens, UniProt P49137)
# T27 construct: purchased Carna Biosciences
# MLK1_Cascade = molecular target: T28, MLK1_Cascade (Homo sapiens, UniProt P80192)
# T28 construct: purchased Carna Biosciences
# T28 sequence (P80192 whole entry): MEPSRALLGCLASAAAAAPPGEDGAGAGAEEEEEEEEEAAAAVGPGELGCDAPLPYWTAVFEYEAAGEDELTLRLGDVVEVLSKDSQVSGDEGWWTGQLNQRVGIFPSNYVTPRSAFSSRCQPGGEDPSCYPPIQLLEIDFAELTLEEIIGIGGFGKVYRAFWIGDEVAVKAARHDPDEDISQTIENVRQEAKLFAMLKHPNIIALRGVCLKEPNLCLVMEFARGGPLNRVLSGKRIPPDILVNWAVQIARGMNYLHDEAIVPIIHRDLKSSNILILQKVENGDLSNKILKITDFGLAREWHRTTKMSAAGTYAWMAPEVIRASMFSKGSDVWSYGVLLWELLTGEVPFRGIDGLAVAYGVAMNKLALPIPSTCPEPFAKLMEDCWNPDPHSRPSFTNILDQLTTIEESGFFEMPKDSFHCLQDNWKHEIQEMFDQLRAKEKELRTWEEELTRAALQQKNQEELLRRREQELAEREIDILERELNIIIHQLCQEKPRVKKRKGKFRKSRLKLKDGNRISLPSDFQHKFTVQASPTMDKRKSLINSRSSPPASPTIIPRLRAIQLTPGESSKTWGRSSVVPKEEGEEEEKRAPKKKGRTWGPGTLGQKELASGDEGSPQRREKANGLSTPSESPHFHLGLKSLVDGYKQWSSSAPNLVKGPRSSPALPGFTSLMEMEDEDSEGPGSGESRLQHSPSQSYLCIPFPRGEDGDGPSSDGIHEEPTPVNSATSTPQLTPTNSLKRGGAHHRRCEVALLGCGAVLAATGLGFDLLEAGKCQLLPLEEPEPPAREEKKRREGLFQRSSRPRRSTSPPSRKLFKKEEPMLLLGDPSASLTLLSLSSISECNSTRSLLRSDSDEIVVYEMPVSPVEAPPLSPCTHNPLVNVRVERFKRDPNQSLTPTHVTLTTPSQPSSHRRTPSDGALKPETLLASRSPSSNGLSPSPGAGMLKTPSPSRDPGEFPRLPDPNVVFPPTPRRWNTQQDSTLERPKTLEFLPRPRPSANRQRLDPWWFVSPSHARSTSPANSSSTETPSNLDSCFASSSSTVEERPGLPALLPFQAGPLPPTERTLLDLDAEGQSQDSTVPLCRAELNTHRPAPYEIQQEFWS
# Source text: as §1
# NDR2 = molecular target: T29, NDR2 (Homo sapiens, UniProt Q9Y2H1)
# T29 construct: purchased Carna Biosciences
# Source text: as §1
# NEK1 = molecular target: T30, NEK1 (Homo sapiens, UniProt Q96PY6)
# T30 construct: purchased Carna Biosciences
# Source text: as §1
# p38γ = molecular target: T31, p38γ (Homo sapiens, UniProt P53778)
# T31 construct: purchased Carna Biosciences
# Source text: as §1
# PAK3 = molecular target: T32, PAK3 (Homo sapiens, UniProt O75914)
# T32 construct: purchased Carna Biosciences
# Source text: as §1
# PIM1 = molecular target: T33, PIM1 (Homo sapiens, UniProt P11309); details: 10 µM FINDY
# T33 construct: purchased Carna Biosciences
# T33 sequence (P11309 whole entry): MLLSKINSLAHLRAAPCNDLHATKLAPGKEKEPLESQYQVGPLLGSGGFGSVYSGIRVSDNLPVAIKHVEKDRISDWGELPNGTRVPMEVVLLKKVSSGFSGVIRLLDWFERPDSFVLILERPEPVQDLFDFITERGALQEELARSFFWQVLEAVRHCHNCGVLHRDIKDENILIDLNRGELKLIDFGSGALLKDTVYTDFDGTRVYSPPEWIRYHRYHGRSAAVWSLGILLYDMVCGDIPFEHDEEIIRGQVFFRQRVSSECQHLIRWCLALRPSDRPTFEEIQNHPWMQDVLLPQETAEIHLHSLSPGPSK
# Source text: as §1
# PKACα = molecular target: T34, PKACα (Homo sapiens, UniProt P17612)
# T34 construct: purchased Carna Biosciences
# PKCβ1 = molecular target: T35, PKCβ1 (Homo sapiens, UniProt P05771)
# T35 construct: purchased Carna Biosciences
# Source text: as §1
# PKCβ2 = molecular target: T36, PKCβ2 (Homo sapiens, UniProt P05771)
# T36 construct: purchased Carna Biosciences
# Source text: as §1
# TSSK3 = molecular target: T37, TSSK3 (Homo sapiens, UniProt Q96PN8)
# T37 construct: purchased Carna Biosciences
# Source text: as §1
# PKD1 = molecular target: T38, PKD1 (Homo sapiens, UniProt Q15139)
# T38 construct: purchased Carna Biosciences
# Source text: as §1
# PKR = molecular target: T39, PKR (Homo sapiens, UniProt P19525)
# T39 construct: purchased Carna Biosciences
# ROCK1 = molecular target: T40, ROCK1 (Homo sapiens, UniProt Q13464)
# T40 construct: purchased Carna Biosciences
# RSK4 = molecular target: T41, RSK4 (Homo sapiens, UniProt Q9UK32)
# T41 construct: purchased Carna Biosciences
# SGK3 = molecular target: T42, SGK3 (Homo sapiens, UniProt Q96BR1)
# T42 construct: purchased Carna Biosciences
# SRPK2 = molecular target: T43, SRPK2 (Homo sapiens, UniProt P78362)
# T43 construct: purchased Carna Biosciences
# Source text: as §1
# TAK1-TAB1_Cascade = molecular target: T44, TAK1-TAB1_Cascade (Homo sapiens, UniProt O43318)
# T44 construct: purchased Carna Biosciences
# Source text: as §1
compound,measurement,setting,value
COc1ccc(/C=C2\SC(=S)NC2=O)cc1C#C[Si](C)(C)C [FINDY],inhibition at 10 µM,ABL,13%
same,inhibition at 10 µM,DDR1,-3.2%
same,inhibition at 10 µM,EPHA8,48.8%
same,inhibition at 10 µM,EPHB4,20.5%
same,inhibition at 10 µM,FAK,7.3%
same,inhibition at 10 µM,FMS,6.8%
same,inhibition at 10 µM,JAK2,7.1%
same,inhibition at 10 µM,KIT,2.9%
same,inhibition at 10 µM,ROS,0.3%
same,inhibition at 10 µM,SRM,32.9%
same,inhibition at 10 µM,TRKA,-0.6%
same,inhibition at 10 µM,TRKC,11.8%
same,inhibition at 10 µM,AurA,58.7%
same,inhibition at 10 µM,AurB,35.7%
same,inhibition at 10 µM,CaMK1δ,7.2%
same,inhibition at 10 µM,CaMK2α,-6.9%
same,inhibition at 10 µM,CDK3/CycE1,20.7%
same,inhibition at 10 µM,CDK4/CycD3,8%
same,inhibition at 10 µM,CK2α2/β,72.5%
same,inhibition at 10 µM,COT_Cascade,55.4%
same,inhibition at 10 µM,Erk1,33.8%
same,inhibition at 10 µM,Erk5,-4%
same,inhibition at 10 µM,HIPK4,16.6%
same,inhibition at 10 µM,IKKα,4.9%
same,inhibition at 10 µM,LATS2,1.2%
same,inhibition at 10 µM,NuaK2,-9.3%
same,inhibition at 10 µM,MAPKAPK2,51.9%
same,inhibition at 10 µM,MLK1_Cascade,48.7%
same,inhibition at 10 µM,NDR2,8.1%
same,inhibition at 10 µM,NEK1,37.3%
same,inhibition at 10 µM,p38γ,5%
same,inhibition at 10 µM,PAK3,-14.7%
same,inhibition at 10 µM,PIM1,76.8%
same,inhibition at 10 µM,PKACα,64.7%
same,inhibition at 10 µM,PKCβ1,3.5%
same,inhibition at 10 µM,PKCβ2,-2.3%
same,inhibition at 10 µM,TSSK3,20.3%
same,inhibition at 10 µM,PKD1,11.8%
same,inhibition at 10 µM,PKR,5.8%
same,inhibition at 10 µM,ROCK1,6.8%
same,inhibition at 10 µM,RSK4,29.6%
same,inhibition at 10 µM,SGK3,21.7%
same,inhibition at 10 µM,SRPK2,-5%
same,inhibition at 10 µM,TAK1-TAB1_Cascade,52.7%

# Reference: paper PMC4844702, “Selective inhibition of the kinase DYRK1A by targeting its folding process” (Nature Communications, 2016)
